Paper PMC3154012 (Journal of the American Chemical Society, 2011)

Key:
[1] = biological target: Mn-C1634 (thermostable chimeric P450 heme domain C1634); assay: optical absorbance titration, two-component binding fit; set-up: species or system Priestia megaterium; Bacillus subtilis; conditions: Mn(III)-PPIX in place of heme; PBS; 5 μM protein
[2] = biological target: T1, Mn-BM3h (wild-type cytochrome P450 BM3 heme domain) (Priestia megaterium, UniProt P14779); assay: optical absorbance titration; type: binding
T1 sequence (P14779 2-464 limits assumed): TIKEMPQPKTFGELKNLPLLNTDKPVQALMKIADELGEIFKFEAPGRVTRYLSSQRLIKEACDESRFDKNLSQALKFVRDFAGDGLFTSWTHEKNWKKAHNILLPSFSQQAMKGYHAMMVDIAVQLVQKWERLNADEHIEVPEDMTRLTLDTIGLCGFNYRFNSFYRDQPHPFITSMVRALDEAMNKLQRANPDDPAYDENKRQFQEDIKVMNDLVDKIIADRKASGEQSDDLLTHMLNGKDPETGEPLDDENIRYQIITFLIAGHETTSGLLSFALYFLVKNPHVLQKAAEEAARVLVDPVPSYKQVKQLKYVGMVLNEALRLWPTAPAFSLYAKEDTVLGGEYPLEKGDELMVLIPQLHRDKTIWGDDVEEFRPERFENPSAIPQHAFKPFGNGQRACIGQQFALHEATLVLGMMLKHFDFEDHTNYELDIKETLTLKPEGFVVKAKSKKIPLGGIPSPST

## CCCCC/C=C\C/C=C\C/C=C\C/C=C\CCCC(=O)O [AA, arachidonic acid]
[1]
  Kd: 2.5 ± 0.7 µM
[2]
  Kd: 0.7 ± 0.5 µM
